# Source: ChEMBL document CHEMBL3991601, “The target landscape of clinical kinase drugs” (Science, 2017)
# Where a name gives a salt, the structure may show the parent alone. Active and inactive are the calls of the source. Cut-off read from the data, not from the text of the source, for most assays here: actives have a measured Kd and inactives only a lower limit.
# Tests used:
# [1] = target: T1, Mitogen-activated protein kinase kinase kinase 3 (Homo sapiens, UniProt Q99759)
# T1 sequence (Q99759 whole entry): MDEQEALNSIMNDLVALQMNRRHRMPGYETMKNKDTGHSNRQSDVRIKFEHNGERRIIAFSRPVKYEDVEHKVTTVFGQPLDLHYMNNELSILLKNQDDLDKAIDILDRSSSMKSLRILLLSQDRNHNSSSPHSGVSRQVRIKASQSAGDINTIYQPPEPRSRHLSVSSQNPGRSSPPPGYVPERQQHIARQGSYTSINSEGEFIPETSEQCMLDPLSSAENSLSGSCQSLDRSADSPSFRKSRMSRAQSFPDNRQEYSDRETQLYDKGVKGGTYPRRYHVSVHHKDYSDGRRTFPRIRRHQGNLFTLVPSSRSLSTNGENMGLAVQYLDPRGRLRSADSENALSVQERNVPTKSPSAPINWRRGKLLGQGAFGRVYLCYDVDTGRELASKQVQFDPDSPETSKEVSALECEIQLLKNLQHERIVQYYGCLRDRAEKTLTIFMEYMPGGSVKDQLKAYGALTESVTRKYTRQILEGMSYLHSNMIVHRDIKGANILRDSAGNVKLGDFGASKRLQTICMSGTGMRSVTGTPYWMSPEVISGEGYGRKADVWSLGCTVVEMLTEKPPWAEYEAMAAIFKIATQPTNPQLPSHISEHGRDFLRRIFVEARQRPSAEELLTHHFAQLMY
# [2] = target: Tyrosine-protein kinase ABL1 (Homo sapiens, UniProt P00519)
# Tyrosine-protein kinase ABL1, sequence (P00519 whole entry): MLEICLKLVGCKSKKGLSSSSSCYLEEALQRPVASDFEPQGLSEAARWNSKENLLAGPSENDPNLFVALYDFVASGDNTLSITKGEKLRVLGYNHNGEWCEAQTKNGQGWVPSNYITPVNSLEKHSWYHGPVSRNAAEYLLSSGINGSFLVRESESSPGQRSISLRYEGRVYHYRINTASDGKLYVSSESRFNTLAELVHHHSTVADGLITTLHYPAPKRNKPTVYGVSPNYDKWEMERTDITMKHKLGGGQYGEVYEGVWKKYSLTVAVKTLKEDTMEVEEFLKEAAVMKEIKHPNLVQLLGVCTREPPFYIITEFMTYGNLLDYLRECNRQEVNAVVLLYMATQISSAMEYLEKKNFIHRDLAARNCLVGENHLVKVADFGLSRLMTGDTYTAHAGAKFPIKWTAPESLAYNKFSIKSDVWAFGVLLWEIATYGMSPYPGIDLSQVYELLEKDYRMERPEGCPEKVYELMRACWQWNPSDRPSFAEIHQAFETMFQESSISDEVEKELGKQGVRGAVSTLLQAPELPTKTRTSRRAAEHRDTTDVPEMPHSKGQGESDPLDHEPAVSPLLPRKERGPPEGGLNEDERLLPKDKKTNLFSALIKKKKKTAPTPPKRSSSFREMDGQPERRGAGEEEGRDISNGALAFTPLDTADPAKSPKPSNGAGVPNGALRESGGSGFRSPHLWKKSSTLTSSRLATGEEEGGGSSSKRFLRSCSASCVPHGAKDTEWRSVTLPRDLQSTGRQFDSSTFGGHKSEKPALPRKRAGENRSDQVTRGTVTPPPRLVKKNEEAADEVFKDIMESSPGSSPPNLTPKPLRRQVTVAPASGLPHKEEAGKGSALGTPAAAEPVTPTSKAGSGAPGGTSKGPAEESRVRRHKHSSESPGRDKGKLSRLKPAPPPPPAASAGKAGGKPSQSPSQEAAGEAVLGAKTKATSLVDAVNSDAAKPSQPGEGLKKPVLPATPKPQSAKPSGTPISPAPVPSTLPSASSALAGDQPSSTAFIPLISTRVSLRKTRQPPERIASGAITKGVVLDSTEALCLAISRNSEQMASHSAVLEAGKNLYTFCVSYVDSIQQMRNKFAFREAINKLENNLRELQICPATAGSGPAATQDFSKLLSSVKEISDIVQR
# [3] = target: T2, Ferrochelatase, mitochondrial (Homo sapiens, UniProt P22830)
# T2 sequence (P22830 whole entry): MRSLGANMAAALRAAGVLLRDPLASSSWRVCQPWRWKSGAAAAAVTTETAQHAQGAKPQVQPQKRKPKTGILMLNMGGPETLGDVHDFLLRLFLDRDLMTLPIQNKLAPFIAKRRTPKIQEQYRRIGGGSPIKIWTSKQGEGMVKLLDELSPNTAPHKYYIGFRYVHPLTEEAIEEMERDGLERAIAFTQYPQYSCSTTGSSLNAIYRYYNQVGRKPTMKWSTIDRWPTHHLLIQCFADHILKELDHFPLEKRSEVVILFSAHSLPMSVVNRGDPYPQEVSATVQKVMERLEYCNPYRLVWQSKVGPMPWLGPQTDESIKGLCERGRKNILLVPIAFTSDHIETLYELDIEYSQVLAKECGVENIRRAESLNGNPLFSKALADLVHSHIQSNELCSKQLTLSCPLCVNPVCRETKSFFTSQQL
# [4] = target: T3, Thyroid hormone receptor-associated protein 3 (Homo sapiens, UniProt Q9Y2W1)
# T3 sequence (Q9Y2W1 whole entry): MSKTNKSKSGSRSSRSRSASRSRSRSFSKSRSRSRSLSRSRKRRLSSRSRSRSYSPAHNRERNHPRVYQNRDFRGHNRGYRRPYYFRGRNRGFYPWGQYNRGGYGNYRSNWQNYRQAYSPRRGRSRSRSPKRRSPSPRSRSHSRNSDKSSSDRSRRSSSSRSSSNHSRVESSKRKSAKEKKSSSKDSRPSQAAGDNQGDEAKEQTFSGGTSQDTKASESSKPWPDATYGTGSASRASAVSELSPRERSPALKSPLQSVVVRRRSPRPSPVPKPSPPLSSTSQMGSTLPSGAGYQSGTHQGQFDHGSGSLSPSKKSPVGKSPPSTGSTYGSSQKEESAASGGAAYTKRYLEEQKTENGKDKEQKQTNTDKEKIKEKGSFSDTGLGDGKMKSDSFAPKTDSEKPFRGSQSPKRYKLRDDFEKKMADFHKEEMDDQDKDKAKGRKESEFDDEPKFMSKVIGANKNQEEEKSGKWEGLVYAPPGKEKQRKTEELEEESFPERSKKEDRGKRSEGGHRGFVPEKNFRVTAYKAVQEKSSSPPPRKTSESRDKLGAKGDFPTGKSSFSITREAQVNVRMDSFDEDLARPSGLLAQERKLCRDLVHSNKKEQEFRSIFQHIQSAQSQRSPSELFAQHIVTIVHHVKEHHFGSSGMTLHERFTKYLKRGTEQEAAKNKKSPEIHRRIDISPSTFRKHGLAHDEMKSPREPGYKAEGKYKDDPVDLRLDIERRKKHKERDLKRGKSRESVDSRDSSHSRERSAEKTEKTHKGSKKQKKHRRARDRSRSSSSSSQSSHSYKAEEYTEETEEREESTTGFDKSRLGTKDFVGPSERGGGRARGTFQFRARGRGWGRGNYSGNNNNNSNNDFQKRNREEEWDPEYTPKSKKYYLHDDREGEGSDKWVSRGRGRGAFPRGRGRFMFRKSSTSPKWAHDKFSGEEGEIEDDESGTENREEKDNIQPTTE
# [5] = target: T4, Dual specificity mitogen-activated protein kinase kinase 6 (Homo sapiens, UniProt P52564)
# T4 sequence (P52564 whole entry): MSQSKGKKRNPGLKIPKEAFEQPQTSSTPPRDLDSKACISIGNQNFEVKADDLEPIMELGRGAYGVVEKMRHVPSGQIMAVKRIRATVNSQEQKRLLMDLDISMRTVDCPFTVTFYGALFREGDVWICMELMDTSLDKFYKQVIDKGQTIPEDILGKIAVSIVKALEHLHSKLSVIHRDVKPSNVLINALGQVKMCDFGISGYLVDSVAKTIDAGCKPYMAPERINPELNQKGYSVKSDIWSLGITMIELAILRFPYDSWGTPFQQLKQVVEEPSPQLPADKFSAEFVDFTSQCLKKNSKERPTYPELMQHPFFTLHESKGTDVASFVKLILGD
# Note: in the data inactive means no Kd found up to 30 µM.
SMILES,Kd [1],Kd [2],Kd [3],Kd [4],Kd [5]
C[C@H]1CNCCCN1S(=O)(=O)c1cccc2cncc(F)c12,> 30 µM (inactive),> 30 µM (inactive),> 30 µM (inactive),> 30 µM (inactive),> 30 µM (inactive)
CCNC(=O)C#Cc1ccc2c(c1)NC(=O)/C2=C(\Nc1ccc(CN(C)C)cc1)c1ccccc1,> 30 µM (inactive),1.59 µM (active),3.48 µM (active),> 30 µM (inactive),> 30 µM (inactive)
C=CC(=O)N1CCC[C@H](n2c(=O)n(-c3ccc(Oc4ccccc4)cc3)c3c(N)ncnc32)C1,> 30 µM (inactive),> 30 µM (inactive),> 30 µM (inactive),> 30 µM (inactive),> 30 µM (inactive)
Cc1nc2cc(-c3nn(C(C)C)c4ncnc(N)c34)ccc2o1,> 30 µM (inactive),> 30 µM (inactive),> 30 µM (inactive),> 30 µM (inactive),> 30 µM (inactive)
COCc1c(-c2ccc(NC(=O)Nc3cc(C(F)(F)F)ccc3F)c(F)c2)c2c(N)ncnn2c1CN1CCOCC1,> 30 µM (inactive),> 30 µM (inactive),> 30 µM (inactive),> 30 µM (inactive),> 30 µM (inactive)
Cc1nc(NC(=O)N2CCC[C@H]2C(N)=O)sc1-c1ccnc(C(C)(C)C(F)(F)F)c1 [ALPELISIB],> 30 µM (inactive),> 30 µM (inactive),> 30 µM (inactive),> 30 µM (inactive),> 30 µM (inactive)
NC(=O)Nc1cc(-c2cccc(F)c2)sc1C(=O)N[C@H]1CCCNC1 [AZD-7762],> 30 µM (inactive),0.61 µM (active),> 30 µM (inactive),> 30 µM (inactive),> 30 µM (inactive)
Cn1cnc2c(F)c(Nc3ccc(Br)cc3F)c(C(=O)NOCCO)cc21 [BINIMETINIB],> 30 µM (inactive),> 30 µM (inactive),> 30 µM (inactive),> 30 µM (inactive),> 30 µM (inactive)
Cc1cc(Nc2ncc(Cl)c(Nc3ccccc3S(=O)(=O)C(C)C)n2)c(OC(C)C)cc1C1CCNCC1 [CERITINIB],> 30 µM (inactive),> 30 µM (inactive),> 30 µM (inactive),> 30 µM (inactive),> 30 µM (inactive)
CCS(=O)(=O)N1CCN(c2ccc(Nc3ncc(C(N)=O)c(NC4CC4)n3)cc2)CC1 [Cerdulatinib Hydrochloride],1.09 µM (active),> 30 µM (inactive),> 30 µM (inactive),> 30 µM (inactive),> 30 µM (inactive)
O=C(Nc1cc(C(F)(F)F)cc(C(F)(F)F)c1)c1cc(Cl)ccc1O [IMD-0354],> 30 µM (inactive),> 30 µM (inactive),> 30 µM (inactive),> 30 µM (inactive),> 30 µM (inactive)
FC(F)(F)c1ccc(/C=C/c2nc(COc3ccc(CCCCn4ccnn4)cc3)co2)cc1 [MUBRITINIB],> 30 µM (inactive),> 30 µM (inactive),> 30 µM (inactive),> 30 µM (inactive),> 30 µM (inactive)
CCCCCCCCCCCCCCCCCCOP(=O)([O-])OC1CC[N+](C)(C)CC1 [PERIFOSINE],> 30 µM (inactive),> 30 µM (inactive),> 30 µM (inactive),> 30 µM (inactive),> 30 µM (inactive)
Cc1cnc(NC(=O)Nc2cc(Br)c(C)cc2OC[C@@H]2CNCCO2)cn1 [RABUSERTIB],> 30 µM (inactive),> 30 µM (inactive),3.82 µM,> 30 µM (inactive),> 30 µM (inactive)
CNC(=O)c1cc(Oc2ccc(NC(=O)Nc3cc(C(C)(C)C)nn3-c3ccc4ncccc4c3)c(F)c2)ccn1 [REBASTINIB],> 30 µM (inactive),–,> 30 µM (inactive),> 30 µM (inactive),> 30 µM (inactive)
CN1CCN(CCOc2cc(OC3CCOCC3)c3c(Nc4c(Cl)ccc5c4OCO5)ncnc3c2)CC1 [SARACATINIB],> 30 µM (inactive),–,> 30 µM (inactive),> 30 µM (inactive),> 30 µM (inactive)

# Second part, the molecule after the results:
Kd [1],Kd [2],Kd [3],Kd [4],Kd [5],SMILES
2.75 µM (active),1.9 µM (active),> 30 µM (inactive),2.75 µM,> 30 µM (inactive),Cc1csc(-c2nnc(Nc3ccc(Oc4ncccc4-c4ccnc(N)n4)cc3)c3ccccc23)c1 [AMG-900]
> 30 µM (inactive),> 30 µM (inactive),> 30 µM (inactive),> 30 µM (inactive),> 30 µM (inactive),Cc1cc(C(=O)NOCCO)c(Nc2ccc(I)cc2F)n(C)c1=O [AZD-8330]
> 30 µM (inactive),> 30 µM (inactive),> 30 µM (inactive),> 30 µM (inactive),> 30 µM (inactive),CCn1c(C(=O)N(C2CC2)C2CC2)cc2c3c(ncn3C)c(Nc3cc(C)n(C)n3)nc21 [BMS-911543]
> 30 µM (inactive),0.05 µM (active),> 30 µM (inactive),> 30 µM (inactive),> 30 µM (inactive),COc1cc2ncnc(Oc3cccc(NC(=O)Nc4cc(C(C)(C)C(F)(F)F)on4)c3)c2cc1OC [CEP-32496]
> 30 µM (inactive),> 30 µM (inactive),28.6 µM (active),> 30 µM (inactive),> 30 µM (inactive),COCC(=O)NC/C=C/c1ccc2ncnc(Nc3ccc(Oc4ccc(C)nc4)c(C)c3)c2c1 [CP-724714]
> 30 µM (inactive),> 30 µM (inactive),> 30 µM (inactive),> 30 µM (inactive),> 30 µM (inactive),COc1ccc(S(=O)(=O)N(C(C)=O)c2ccccc2/C=C/c2cc[n+]([O-])cc2)cc1 [HMN-214]
> 30 µM (inactive),> 30 µM (inactive),1.07 µM (active),> 30 µM (inactive),> 30 µM (inactive),NC1(c2ccc(-c3nc4ccn5c(=O)[nH]nc5c4cc3-c3ccccc3)cc2)CCC1 [MK-2206]
> 30 µM (inactive),> 30 µM (inactive),32.6 µM (active),> 30 µM (inactive),> 30 µM (inactive),Cn1cc(-c2cnc3ccc4ccc(CS(=O)(=O)NCc5ccccn5)cc4c(=O)c3c2)cn1 [MK-8033]
> 30 µM (inactive),> 30 µM (inactive),> 30 µM (inactive),> 30 µM (inactive),> 30 µM (inactive),Cc1nc(Nc2n[nH]c3c2CN(C(=O)N[C@H](CN(C)C)c2ccccc2)C3(C)C)c2sccc2n1 [PF-03758309]
